The values below come from PMC12116762, “Topobexin targets the Topoisomerase II ATPase domain for beta isoform-selective inhibition and anthracycline cardioprotection” (Nature Communications, 2025).

Molecules are shown by their SMILES. “And” between values parts separate entries of the source, which are not always exact repeats. Identical values can stand only once. Bounds are passed on as bounds.

As a reminder, the IC50 is the concentration that inhibits the measured activity by half.

The target of one data set is T1, recombinant human TOP2B (Homo sapiens, UniProt Q02880).
T1 construct: Using recombinant full-length human TOP2A and TOP2B enzymes; YFP (N, cleaved yes); made in house; host or cells: HEK293F
T1 sequence (Q02880 1-1621 isoform Q02880-2): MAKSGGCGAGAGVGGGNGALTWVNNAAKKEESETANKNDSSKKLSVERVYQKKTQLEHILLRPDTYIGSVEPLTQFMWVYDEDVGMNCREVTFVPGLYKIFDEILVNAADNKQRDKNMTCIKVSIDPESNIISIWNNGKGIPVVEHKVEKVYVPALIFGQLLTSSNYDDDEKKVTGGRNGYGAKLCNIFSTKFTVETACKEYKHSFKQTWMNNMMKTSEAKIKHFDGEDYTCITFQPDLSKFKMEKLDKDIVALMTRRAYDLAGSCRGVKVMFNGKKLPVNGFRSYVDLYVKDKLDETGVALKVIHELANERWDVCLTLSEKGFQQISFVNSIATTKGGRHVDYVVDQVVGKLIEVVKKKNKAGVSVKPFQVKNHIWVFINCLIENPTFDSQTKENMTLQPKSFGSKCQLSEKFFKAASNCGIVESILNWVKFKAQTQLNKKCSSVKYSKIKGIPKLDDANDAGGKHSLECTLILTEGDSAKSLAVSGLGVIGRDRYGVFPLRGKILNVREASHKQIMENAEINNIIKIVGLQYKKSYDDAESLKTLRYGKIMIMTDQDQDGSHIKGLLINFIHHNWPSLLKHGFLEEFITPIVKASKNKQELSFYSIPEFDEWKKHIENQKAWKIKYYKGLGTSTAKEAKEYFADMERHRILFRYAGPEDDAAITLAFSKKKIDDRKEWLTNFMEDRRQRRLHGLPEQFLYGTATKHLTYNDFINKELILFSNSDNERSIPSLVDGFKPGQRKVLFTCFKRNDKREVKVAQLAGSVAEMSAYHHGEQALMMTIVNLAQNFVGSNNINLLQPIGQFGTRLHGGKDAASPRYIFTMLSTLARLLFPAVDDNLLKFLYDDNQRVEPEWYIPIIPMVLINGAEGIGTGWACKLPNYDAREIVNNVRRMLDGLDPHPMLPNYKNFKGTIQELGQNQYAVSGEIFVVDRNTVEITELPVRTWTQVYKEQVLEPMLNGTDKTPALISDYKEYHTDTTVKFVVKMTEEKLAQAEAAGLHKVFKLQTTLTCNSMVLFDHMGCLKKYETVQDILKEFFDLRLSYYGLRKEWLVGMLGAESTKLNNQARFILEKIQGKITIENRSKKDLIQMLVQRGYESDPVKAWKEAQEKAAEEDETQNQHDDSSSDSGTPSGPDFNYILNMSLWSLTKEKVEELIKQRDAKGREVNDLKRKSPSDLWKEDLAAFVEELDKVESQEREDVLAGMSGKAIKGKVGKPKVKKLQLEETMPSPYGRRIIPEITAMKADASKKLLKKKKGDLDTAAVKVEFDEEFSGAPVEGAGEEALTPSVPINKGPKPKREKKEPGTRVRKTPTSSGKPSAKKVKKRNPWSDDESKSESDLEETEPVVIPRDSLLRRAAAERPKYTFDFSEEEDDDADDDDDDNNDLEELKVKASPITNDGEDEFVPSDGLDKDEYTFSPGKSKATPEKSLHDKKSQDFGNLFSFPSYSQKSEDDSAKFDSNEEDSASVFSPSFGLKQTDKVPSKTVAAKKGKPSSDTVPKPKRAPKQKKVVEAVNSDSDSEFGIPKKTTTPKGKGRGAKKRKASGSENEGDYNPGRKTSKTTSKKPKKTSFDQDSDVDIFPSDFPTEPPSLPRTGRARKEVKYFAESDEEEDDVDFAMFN
The data set can be described thus: DNA decatenation assay, recombinant TOP2B. Particulars: for SRbeta (SRTOP2B), decatenation activity: TOP2A IC50 divided by TOP2B IC50; for IC50: enzyme expressed in HEK293F, n=3. Format: biochemical. As to the method: The human topoisomerase II decatenation assay was performed to determine the inhibitory effects of BNS-22 and new compounds as previously described with minor modifications[14],[36]. The assay was performed using recombinant human TOP2A or TOP2B generated using the HEK293F YFP-tag expression system as previously described[18],[19],[36]. Briefly, plasmids encoding YFP-TOP2A or YFP-TOP2B were transfected into HEK293F cells (Catalog number 11625019, Thermofisher Scientific), and TOP2 proteins were isolated from cell lysates by anti-YFP nanobody affinity chromatography. After elution by TEV protease cleavage, TOP2 proteins were FPLC purified by sequential cation exchange and size exclusion chromatography. Plasmid encoding TOP2B C88Y was generated by round-the-horn PCR mutagenesis and the sequence was verified by full-plasmid sequencing. Purified TOP2 proteins were stored in a storage buffer containing 20 mM HEPES pH 7.5, 500 mM NaCl, 0.5 mM TCEP, 25% (v/v) glycerol at -80 °C. For decatenation assays, purified TOP2 proteins were incubated with 200 ng kDNA (Topogen) in a reaction buffer containing 50 mM Tris−HCl (pH 8), 100 mM NaCl, 10 mM MgCl2, 0.5 mM DTT, 2 mM ATP, 0.1 mM tris(2-carboxyethyl)phosphine (TCEP), 5% (v/v) glycerol, 70 μg/mL bovine serum albumin, and 1/10 volume of each compound diluted in 10% DMSO (final DMSO concentration 1%) for 40 min at 37 °C. The reaction was then stopped by the addition of gel loading buffer (0.5 volumes of 60% (w/v) glycerol, 60 mM EDTA, 20 mM Tris−HCl (pH 7.5), 0.5 mg/mL bromophenol blue) and the samples were placed on ice. Reaction products were resolved by agarose gel electrophoresis in TBE buffer containing GelRed stain (Biotium). Gels were visualized using an iBright CL1000 (Thermofisher Scientific). Band intensities were quantified using FIJI, and the signal of the treated samples was normalized to the value of the control (untreated sample; 100%) present on the same gel. The normalized signal of three independent measurements was then expressed as mean ± SD. Each presented data point was obtained from distinct sample. Normalized values were plotted as a function of inhibitor concentration to determine IC50 values by nonlinear regression with variable slope using Prism 9 (GraphPad).

The test system of data set [1] is neonatal rat ventricular cardiomyocytes (NVCM). Description: Inherent toxicity (LDH release) in NVCM. Type of data set: cell-based. On the set-up: key to LDH release (inherent toxicity), mean of independent replicates: % of total LDH activity. As to conditions: NVCM; for LDH release (inherent toxicity), mean of independent replicates: Suppl.Fig.4. Put shortly: (§1)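 Primary neonatal Wistar rat cardiomyocytes in serum- and pyruvate-free DMEM/F12 were pretreated with compound 3 h, then co-incubated 3 h with DAU (1.2 µM), or without DAU for inherent toxicity, then given a 48 h drug-free follow-up. Medium LDH activity (NAD+ reduction at 340 nm) expressed as % of total LDH.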
(In general: LDH in the medium is a marker of cell lysis.)

Data set [2] has the same test system. Description: Protection against DAU-induced cytotoxicity (LDH release) in NVCM. Type of data set: cell-based. Also on record: key to Suppl.Fig.3 DAU-induced cytotoxicity (LDH release) in NVCM, mean of independent replicates / LDH release (DAU-induced cytotoxicity), mean of independent replicates: % of total LDH activity. As to conditions: for LDH release: independent replicates. An outline of the steps: as §1

Turning to `CCCc1cc(=O)oc2c(C(=O)N3CCCc4ccccc43)c(OCCO)ccc12` [5c], the remaining activity at 0.059 µM at recombinant human TOP2B (0.059 μM, independent replicates, read-out: Normalized % TOP2B activity, decatenation) is 106%. Besides, the remaining activity at 0.117 µM on recombinant human TOP2B (0.117 μM, independent replicates, read-out: Normalized % TOP2B activity, decatenation) stood at 112%. Further, the remaining activity at 0.938 µM on recombinant human TOP2B (0.938 μM, independent replicates, read-out: Normalized % TOP2B activity, decatenation) is 66.9%. The remaining activity at 1.875 µM at recombinant human TOP2B (1.875 μM, independent replicates, read-out: Normalized % TOP2B activity, decatenation) is 29.8%. The “SRbeta (SRTOP2B), decatenation activity” value at recombinant human TOP2B turned out to be 2.2. In addition, the 50% inhibitory concentration (IC50) at recombinant human TOP2B was 1430 nM. The “LTC = lowest toxic concentration” value in data set [1] (compound alone, n=4) was 100 µM. For the same molecule, the “LDH release (inherent toxicity), mean of independent replicates” value in data set [1] (compound alone 0.01 µM) is 14.5952; in data set [1] (compound alone 0.1 µM), 14.7832; in data set [1] (compound alone 1 µM), 14.0641; in data set [1] (compound alone 10 µM) it was 18.571; in data set [1] (compound alone 30 µM), 18.0914; in data set [1] (compound alone 100 µM) it was 21.5856. In addition, the “concentration providing significant cardioprotection” value in data set [2] (NVCM, DAU 1.2 µM) is not below 0.1 µM. The minimal effective concentration in data set [2] (Rattus norvegicus, Cardiomyocyte, NVCM, protection against DAU 1.2 µM, n=4, read-out: LEC = lowest effective concentration) came to 0.1 µM. Moreover, the “LDH release, mean” value was 43.3429 % of total LDH in data set [2] (compound 0.01 µM + DAU 1.2 µM); 37.9008 % of total LDH in data set [2] (compound 0.1 µM + DAU 1.2 µM); 32.4872 % of total LDH in data set [2] (compound 1 µM + DAU 1.2 µM); 26.8851 % of total LDH in data set [2] (compound 10 µM + DAU 1.2 µM); 27.5762 % of total LDH in data set [2] (compound 30 µM + DAU 1.2 µM); 31.1384 % of total LDH in data set [2] (compound 100 µM + DAU 1.2 µM). Moreover, the “Suppl.Fig.3 DAU-induced cytotoxicity (LDH release) in NVCM, mean of independent replicates” value is 43.3429 in data set [2] (compound 0.01 µM + DAU 1.2 µM); 37.9008 in data set [2] (compound 0.1 µM + DAU 1.2 µM); 32.4872 in data set [2] (compound 1 µM + DAU 1.2 µM); 26.8851 in data set [2] (compound 10 µM + DAU 1.2 µM); 27.5762 in data set [2] (compound 30 µM + DAU 1.2 µM); 31.1384 in data set [2] (compound 100 µM + DAU 1.2 µM). Further, the LDH release in data set [2] (compound 0.01 µM + DAU 1.2 µM) is 38.8043 % of total LDH and 44.6863 % of total LDH and 52.1182 % of total LDH and 37.7626 % of total LDH; in data set [2] (compound 0.1 µM + DAU 1.2 µM), 31.4509 % of total LDH and 46.2465 % of total LDH and 39.969 % of total LDH and 33.9368 % of total LDH; in data set [2] (compound 1 µM + DAU 1.2 µM), 27.3874 % of total LDH and 32.0086 % of total LDH and 42.6349 % of total LDH and 27.9179 % of total LDH; in data set [2] (compound 10 µM + DAU 1.2 µM) it was 22.9974 % of total LDH and 24.3605 % of total LDH and 29.85 % of total LDH and 30.3325 % of total LDH; in data set [2] (compound 30 µM + DAU 1.2 µM), 24.4062 % of total LDH and 28.0233 % of total LDH and 28.184 % of total LDH and 29.6914 % of total LDH; in data set [2] (compound 100 µM + DAU 1.2 µM), 22.9096 % of total LDH and 39.1124 % of total LDH and 31.4385 % of total LDH and 31.093 % of total LDH.

In the case of `COc1cccc2c1C(=O)c1c(O)c3c(c(O)c1C2=O)C[C@@](O)(C(C)=O)C[C@@H]3O[C@H]1C[C@H](N)[C@H](O)[C@H](C)O1` [DAU, daunorubicin, reference compound], in data set [2] (DAU 1.2 µM alone, 48 h), the “LDH release, mean” value is 50.9581 % of total LDH and 40.9598 % of total LDH and 38.3367 % of total LDH; the LDH release is 42.9177 % of total LDH and 49.9715 % of total LDH and 51.9004 % of total LDH and 59.0427 % of total LDH and 48.4333 % of total LDH and 43.9079 % of total LDH and 36.1066 % of total LDH and 35.3914 % of total LDH and 37.5065 % of total LDH and 36.8503 % of total LDH and 39.0464 % of total LDH and 39.9436 % of total LDH. In addition, the “LDH release (DAU-induced cytotoxicity), mean of independent replicates” value in data set [2] (DAU 1.2 µM alone, NVCM, Suppl.Fig.6b) was 49.0741 and 44.6225 and 40.9598 and 43.4866. In data set [2] (DAU 1.2 µM alone, NVCM, Suppl.Fig.8a), the “LDH release (DAU-induced cytotoxicity), mean of independent replicates” value is 50.2853. In data set [2] (DAU 1.2 µM alone, one value per experiment set (compound block)), the “Suppl.Fig.3 DAU-induced cytotoxicity (LDH release) in NVCM, mean of independent replicates” value is 52.5555 and 50.9581 and 43.2031 and 52.6717 and 39.8455 and 40.6658 and 38.8384 and 49.4177 and 40.4688 and 38.0883 and 38.3367 and 37.1578 and 50.485 and 47.9698 and 52.8733 and 52.0892 and 42.039 and 50.4287.

As to `C[C@@H](CN1CC(=O)NC(=O)C1)N1CC(=O)NC(=O)C1` [dexrazoxane], the remaining activity at 0.029 µM at recombinant human TOP2B (0.029 μM, independent replicates, read-out: Normalized % TOP2B activity, decatenation) came to 88.8%. For the same molecule, on recombinant human TOP2B (0.469 μM, independent replicates, read-out: Normalized % TOP2B activity, decatenation), the remaining activity at 0.469 µM was determined as 75.2%. Further, on recombinant human TOP2B (15.000 μM, independent replicates, read-out: Normalized % TOP2B activity, decatenation), the remaining activity at 15 µM amounted to 12.9%. In addition, on recombinant human TOP2B (30.000 μM, independent replicates, read-out: Normalized % TOP2B activity, decatenation), the remaining activity at 30 µM was determined as 5.87%. Further, the “SRbeta (SRTOP2B), decatenation activity” value at recombinant human TOP2B is given as 0.75. Also, the 50% inhibitory concentration (IC50) at recombinant human TOP2B is 4500 nM. The “concentration needed for similar extent of protection, relative to topobexin (9)” value in data set [2] (NVCM) is recorded as “at least 10 ×”. Besides, the “LDH release (protection against DAU), mean of independent replicates” value turned out to be 48.0486 in data set [2] (compound 0.1 µM + DAU 1.2 µM, NVCM, Suppl.Fig.8a); 43.2962 in data set [2] (compound 1 µM + DAU 1.2 µM, NVCM, Suppl.Fig.8a); 41.8711 in data set [2] (compound 10 µM + DAU 1.2 µM, NVCM, Suppl.Fig.8a); 36.8821 in data set [2] (compound 100 µM + DAU 1.2 µM, NVCM, Suppl.Fig.8a).
